Converted amounts (≈) assume the structure as drawn.
How the values were obtained:
Candida parapsilosis = assay: Antifungal activity against Candida parapsilosis ATCC […] after 72 to 96 hrs by standard broth microdilution method; type: functional; conditions: Lodderomyces parapsilosis
Escherichia coli = assay: Antimicrobial activity against Escherichia coli ATCC 9637 after 24 hrs by standard broth microdilution method; type: functional; conditions: ATCC 9637, 24 h
Plasmodium falciparum [1] = assay: Antiplasmodial activity against chloroquine-resistant Plasmodium falciparum K1 infected after 72 hrs by Malaria SYBR Green I-staining based fluorescence assay; type: functional, organism-based; conditions: K1, 72 h
Plasmodium falciparum [2] = assay: Antiplasmodial activity against chloroquine-sensitive Plasmodium falciparum 3D7 infected after 72 hrs by Malaria SYBR Green I-staining based fluorescence assay; type: functional, organism-based; conditions: 3D7, 72 h
Candida albicans = assay: Antifungal activity against Candida albicans clinical isolate after 24 to 48 hrs by standard broth microdilution method; type: functional
Pseudomonas aeruginosa = assay: Antimicrobial activity against Pseudomonas aeruginosa ATCC BAA-427 after 24 hrs by standard broth microdilution method; type: functional; conditions: ATCC BAA-427, 24 h
Klebsiella pneumoniae = assay: Antimicrobial activity against Klebsiella pneumoniae ATCC 27736 after 24 hrs by standard broth microdilution method; type: functional; conditions: ATCC 27736, 24 h
[3] = Selectivity index, ratio of IC50 for african green monkey Vero cells to IC50 for chloroquine-sensitive Plasmodium falciparum 3D7; type: toxicity, cell-based; conditions: read-out: Ratio IC50
Cryptococcus neoformans = assay: Antifungal activity against Cryptococcus neoformans clinical isolate after 24 to 48 hrs by standard broth microdilution method; type: functional
Aspergillus fumigatus = assay: Antifungal activity against Aspergillus fumigatus clinical isolate after 72 to 96 hrs by standard broth microdilution method; type: functional
[4] = system: Trichophyton mentagrophytes; assay: Antifungal activity against Trichophyton mentagrophytes clinical isolate after 72 to 96 hrs by standard broth microdilution method; type: functional
Sporothrix schenckii = assay: Antifungal activity against Sporothrix schenckii clinical isolate after 72 to 96 hrs by standard broth microdilution method; type: functional
Staphylococcus aureus = assay: Antimicrobial activity against Staphylococcus aureus ATCC 25923 after 24 hrs by standard broth microdilution method; type: functional; conditions: ATCC 25923, 24 h

`Clc1cccc(/N=C(\NCCCCNc2ccnc3cc(Cl)ccc23)Nc2ccc(Oc3cc(Cl)ccc3Cl)cc2)c1` showed an MIC (Candida parapsilosis) of 6.25 µg/mL (≈ 9.77 µM), an MIC (Escherichia coli) of 6.25 µg/mL (≈ 9.77 µM) and an IC50 (Plasmodium falciparum [1]) of over 782 nM. It also gave an IC50 (Plasmodium falciparum [2]) of 126 nM, an MIC (Candida albicans) of 3.12 µg/mL (≈ 4.88 µM) and an MIC (Pseudomonas aeruginosa) of over 50 µg/mL. It also gave an MIC (Klebsiella pneumoniae) of 50 µg/mL (≈ 78.2 µM), a selectivity ratio [3] of 26.3 and an MIC (Cryptococcus neoformans) of 12.5 µg/mL (≈ 19.5 µM). It also gave an MIC (Aspergillus fumigatus) of 25 µg/mL (≈ 39.1 µM), an MIC [4] of 6.25 µg/mL (≈ 9.77 µM) and an MIC (Sporothrix schenckii) of 3.12 µg/mL (≈ 4.88 µM). The MIC (Staphylococcus aureus) was 6.25 µg/mL (≈ 9.77 µM).

`Clc1ccc(Cl)c(Oc2ccccc2N/C(=N/c2ccccc2)NCCCNc2ccnc3cc(Cl)ccc23)c1` showed an MIC (Candida parapsilosis) of 50 µg/mL (≈ 84.6 µM), an MIC (Escherichia coli) of 12.5 µg/mL (≈ 21.2 µM) and an IC50 (Plasmodium falciparum [1]) of 176 nM. For the same compound, the IC50 (Plasmodium falciparum [2]) was 74.7 nM, the MIC (Candida albicans) was 12.5 µg/mL (≈ 21.2 µM) and the MIC (Pseudomonas aeruginosa) was over 50 µg/mL. It also gave an MIC (Klebsiella pneumoniae) of 12.5 µg/mL (≈ 21.2 µM), a selectivity ratio [3] of 116 and an MIC (Cryptococcus neoformans) of 25 µg/mL (≈ 42.3 µM). For the same compound, the MIC (Aspergillus fumigatus) was over 50 µg/mL, the MIC [4] was 12.5 µg/mL (≈ 21.2 µM) and the MIC (Sporothrix schenckii) was 12.5 µg/mL (≈ 21.2 µM). It also gave an MIC (Staphylococcus aureus) of 3.12 µg/mL (≈ 5.28 µM).

In the case of `Clc1cccc(/N=C(\NCCNc2ccnc3cc(Cl)ccc23)Nc2ccccc2Oc2cc(Cl)ccc2Cl)c1`, the MIC (Candida parapsilosis) is reported as 50 µg/mL (≈ 81.8 µM), the MIC (Escherichia coli) is reported as 6.25 µg/mL (≈ 10.2 µM) and the IC50 (Plasmodium falciparum [1]) is reported as 422 nM. It also gave an IC50 (Plasmodium falciparum [2]) of 69.6 nM, an MIC (Candida albicans) of 50 µg/mL (≈ 81.8 µM) and an MIC (Pseudomonas aeruginosa) of over 50 µg/mL. The MIC (Klebsiella pneumoniae) was over 50 µg/mL, the selectivity ratio [3] was 56.2 and the MIC (Cryptococcus neoformans) was over 50 µg/mL. For the same compound, the MIC (Aspergillus fumigatus) was over 50 µg/mL, the MIC [4] was 50 µg/mL (≈ 81.8 µM) and the MIC (Sporothrix schenckii) was 50 µg/mL (≈ 81.8 µM). The MIC (Staphylococcus aureus) was 1.56 µg/mL (≈ 2.55 µM).

With `COC(=O)/C(C)=C/c1ccc(Oc2ccccc2N/C(=N/c2ccc(Cl)cc2)NCCNc2ccnc3cc(Cl)ccc23)cc1` the MIC (Candida parapsilosis) was over 50 µg/mL, the MIC (Escherichia coli) was 50 µg/mL (≈ 78.1 µM) and the IC50 (Plasmodium falciparum [1]) was 419 nM. The IC50 (Plasmodium falciparum [2]) was 51.5 nM, the MIC (Candida albicans) was 50 µg/mL (≈ 78.1 µM) and the MIC (Pseudomonas aeruginosa) was over 50 µg/mL. It also gave an MIC (Klebsiella pneumoniae) of over 50 µg/mL, a selectivity ratio [3] of 46.2 and an MIC (Cryptococcus neoformans) of 50 µg/mL (≈ 78.1 µM). For the same compound, the MIC (Aspergillus fumigatus) was over 50 µg/mL, the MIC [4] was 50 µg/mL (≈ 78.1 µM) and the MIC (Sporothrix schenckii) was 50 µg/mL (≈ 78.1 µM). For the same compound, the MIC (Staphylococcus aureus) was 1.56 µg/mL (≈ 2.44 µM).

Work on `Clc1cccc(/N=C(\NCCCNc2ccnc3cc(Cl)ccc23)Nc2ccc(Oc3cc(Cl)ccc3Cl)cc2)c1` yielded an MIC (Candida parapsilosis) of 25 µg/mL (≈ 40 µM), an MIC (Escherichia coli) of 6.25 µg/mL (≈ 9.99 µM) and an IC50 (Plasmodium falciparum [1]) of over 800 nM. For the same compound, the IC50 (Plasmodium falciparum [2]) was 76.2 nM, the MIC (Candida albicans) was 3.12 µg/mL (≈ 4.99 µM) and the MIC (Pseudomonas aeruginosa) was over 50 µg/mL. For the same compound, the MIC (Klebsiella pneumoniae) was over 50 µg/mL, the selectivity ratio [3] was 44.5 and the MIC (Cryptococcus neoformans) was 6.25 µg/mL (≈ 9.99 µM). For the same compound, the MIC (Aspergillus fumigatus) was 12.5 µg/mL (≈ 20 µM), the MIC [4] was 6.25 µg/mL (≈ 9.99 µM) and the MIC (Sporothrix schenckii) was 3.12 µg/mL (≈ 4.99 µM). The MIC (Staphylococcus aureus) was 12.5 µg/mL (≈ 20 µM).

Work on `Clc1ccc(/N=C(\NCCCNc2ccnc3cc(Cl)ccc23)Nc2ccccc2Oc2cc(Cl)ccc2Cl)cc1` yielded an MIC (Candida parapsilosis) of 50 µg/mL (≈ 80 µM), an MIC (Escherichia coli) of 12.5 µg/mL (≈ 20 µM) and an IC50 (Plasmodium falciparum [1]) of over 800 nM. For the same compound, the IC50 (Plasmodium falciparum [2]) was 87.2 nM, the MIC (Candida albicans) was 6.25 µg/mL (≈ 9.99 µM) and the MIC (Pseudomonas aeruginosa) was over 50 µg/mL. The MIC (Klebsiella pneumoniae) was over 50 µg/mL, the selectivity ratio [3] was 112 and the MIC (Cryptococcus neoformans) was 25 µg/mL (≈ 40 µM). For the same compound, the MIC (Aspergillus fumigatus) was over 50 µg/mL, the MIC [4] was over 50 µg/mL and the MIC (Sporothrix schenckii) was 25 µg/mL (≈ 40 µM). It also gave an MIC (Staphylococcus aureus) of 6.25 µg/mL (≈ 9.99 µM).

`Clc1cccc(/N=C(\NCCNc2ccnc3cc(Cl)ccc23)Nc2ccc(Oc3cc(Cl)ccc3Cl)cc2)c1` gave an MIC (Candida parapsilosis) of 25 µg/mL (≈ 40.9 µM), an MIC (Escherichia coli) of 6.25 µg/mL (≈ 10.2 µM) and an IC50 (Plasmodium falciparum [1]) of over 817 nM. The IC50 (Plasmodium falciparum [2]) was 62.8 nM, the MIC (Candida albicans) was 3.12 µg/mL (≈ 5.1 µM) and the MIC (Pseudomonas aeruginosa) was over 50 µg/mL. The MIC (Klebsiella pneumoniae) was over 50 µg/mL, the selectivity ratio [3] was 53.2 and the MIC (Cryptococcus neoformans) was 12.5 µg/mL (≈ 20.4 µM). For the same compound, the MIC (Aspergillus fumigatus) was 50 µg/mL (≈ 81.8 µM), the MIC [4] was 6.25 µg/mL (≈ 10.2 µM) and the MIC (Sporothrix schenckii) was 3.12 µg/mL (≈ 5.1 µM). The MIC (Staphylococcus aureus) was 12.5 µg/mL (≈ 20.4 µM).

Compound `COc1ccc(Oc2ccc(N/C(=N/c3cccc(Cl)c3)NCCCNc3ccnc4cc(Cl)ccc34)cc2)cc1` has an MIC (Candida parapsilosis) of 12.5 µg/mL (≈ 21.3 µM), an MIC (Escherichia coli) of 6.25 µg/mL (≈ 10.7 µM) and an IC50 (Plasmodium falciparum [1]) of 236 nM. For the same compound, the IC50 (Plasmodium falciparum [2]) was 49.6 nM, the MIC (Candida albicans) was 6.25 µg/mL (≈ 10.7 µM) and the MIC (Pseudomonas aeruginosa) was over 50 µg/mL. It also gave an MIC (Klebsiella pneumoniae) of 12.5 µg/mL (≈ 21.3 µM), a selectivity ratio [3] of 158 and an MIC (Cryptococcus neoformans) of 25 µg/mL (≈ 42.6 µM). It also gave an MIC (Aspergillus fumigatus) of 25 µg/mL (≈ 42.6 µM), an MIC [4] of 6.25 µg/mL (≈ 10.7 µM) and an MIC (Sporothrix schenckii) of 6.25 µg/mL (≈ 10.7 µM). For the same compound, the MIC (Staphylococcus aureus) was 6.25 µg/mL (≈ 10.7 µM).

For `COc1ccc(Oc2ccc(N/C(=N/c3cccc(Cl)c3)NCCNc3ccnc4cc(Cl)ccc34)cc2)cc1`, the MIC (Candida parapsilosis) was over 50 µg/mL, the MIC (Escherichia coli) was 12.5 µg/mL (≈ 21.8 µM) and the IC50 (Plasmodium falciparum [1]) was 83.3 nM. For the same compound, the IC50 (Plasmodium falciparum [2]) was 88.7 nM, the MIC (Candida albicans) was 25 µg/mL (≈ 43.7 µM) and the MIC (Pseudomonas aeruginosa) was over 50 µg/mL. It also gave an MIC (Klebsiella pneumoniae) of 12.5 µg/mL (≈ 21.8 µM), a selectivity ratio [3] of 91.3 and an MIC (Cryptococcus neoformans) of over 50 µg/mL. The MIC (Aspergillus fumigatus) was over 50 µg/mL, the MIC [4] was 12.5 µg/mL (≈ 21.8 µM) and the MIC (Sporothrix schenckii) was 12.5 µg/mL (≈ 21.8 µM). It also gave an MIC (Staphylococcus aureus) of 12.5 µg/mL (≈ 21.8 µM).

Compound `Clc1cccc(/N=C(\NCCCCNc2ccnc3cc(Cl)ccc23)Nc2ccccc2Oc2cc(Cl)ccc2Cl)c1` has an MIC (Candida parapsilosis) of 25 µg/mL (≈ 39.1 µM), an MIC (Escherichia coli) of 12.5 µg/mL (≈ 19.5 µM) and an IC50 (Plasmodium falciparum [1]) of 432 nM. It also gave an IC50 (Plasmodium falciparum [2]) of 149 nM, an MIC (Candida albicans) of 25 µg/mL (≈ 39.1 µM) and an MIC (Pseudomonas aeruginosa) of 50 µg/mL (≈ 78.2 µM). The MIC (Klebsiella pneumoniae) was 12.5 µg/mL (≈ 19.5 µM), the selectivity ratio [3] was 7.7 and the MIC (Cryptococcus neoformans) was 50 µg/mL (≈ 78.2 µM). The MIC (Aspergillus fumigatus) was 50 µg/mL (≈ 78.2 µM), the MIC [4] was 25 µg/mL (≈ 39.1 µM) and the MIC (Sporothrix schenckii) was 25 µg/mL (≈ 39.1 µM). It also gave an MIC (Staphylococcus aureus) of 1.56 µg/mL (≈ 2.44 µM).

Reference: ChEMBL document CHEMBL3232804, “Synthesis and evaluation of new diaryl ether and quinoline hybrids as potential antiplasmodial and antimicrobial agents” (Bioorg Med Chem Lett, 2014)
